In US9598414B2, “Substituted benzo[5,6]azepino[3,2,1-hi]pyrido[4,3-b]indoles and substituted benzo[6,7][1,4]oxazepino[2,3,4-hi]pyrido[4,3-b]indoles for treating CNS disorders” (Daya Drug Discoveries, Inc., priority 2013, dated 2017):

Legend:
Serotonin 5-HT1D = Serotonin 5-HT1D (Homo sapiens, UniProt P28221); test: Receptor binding, 5-HT1D
Muscarinic M5 = Muscarinic M5 (Homo sapiens, UniProt P08912); test: Receptor binding, M5
β-Adrenergic β3 = β-Adrenergic β3 (Homo sapiens, UniProt P13945); test: Receptor binding, β3
Chain of β-Adrenergic β3 (P13945 whole entry): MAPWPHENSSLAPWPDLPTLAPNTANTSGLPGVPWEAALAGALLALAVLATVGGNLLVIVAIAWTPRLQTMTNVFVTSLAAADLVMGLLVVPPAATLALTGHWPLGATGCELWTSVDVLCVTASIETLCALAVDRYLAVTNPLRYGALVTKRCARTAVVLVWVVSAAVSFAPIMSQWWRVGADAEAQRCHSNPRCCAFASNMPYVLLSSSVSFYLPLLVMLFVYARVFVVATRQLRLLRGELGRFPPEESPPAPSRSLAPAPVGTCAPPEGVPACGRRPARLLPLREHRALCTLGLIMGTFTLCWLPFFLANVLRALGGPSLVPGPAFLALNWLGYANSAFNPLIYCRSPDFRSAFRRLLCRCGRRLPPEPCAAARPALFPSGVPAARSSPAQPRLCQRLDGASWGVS

Dopamine D1 = Dopamine D1 (Homo sapiens, UniProt P21728); test: Receptor binding, D1
Histamine H3 = Histamine H3 (Homo sapiens, UniProt Q9Y5N1); test: Receptor binding, H3
Serotonin 5-HT1B = Serotonin 5-HT1B (Homo sapiens, UniProt P28222); test: Receptor binding, 5-HT1B
Chain of Serotonin 5-HT1B (P28222 whole entry): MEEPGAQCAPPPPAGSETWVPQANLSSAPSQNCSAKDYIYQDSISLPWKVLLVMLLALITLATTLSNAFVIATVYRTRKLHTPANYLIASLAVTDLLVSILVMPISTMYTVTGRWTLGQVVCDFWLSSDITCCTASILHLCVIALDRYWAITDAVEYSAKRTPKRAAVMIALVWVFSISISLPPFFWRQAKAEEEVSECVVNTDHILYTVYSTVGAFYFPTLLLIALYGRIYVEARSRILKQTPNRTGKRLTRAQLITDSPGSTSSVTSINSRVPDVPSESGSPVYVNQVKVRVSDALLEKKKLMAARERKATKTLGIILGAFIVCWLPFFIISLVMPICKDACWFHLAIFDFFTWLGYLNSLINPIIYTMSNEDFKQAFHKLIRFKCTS

[1] = molecular target: Norepinephrine transporter (Homo sapiens, UniProt P23975); test: Receptor binding, norepinephrine transporter; conditions: Transporters: Norepinephrine
Muscarinic M1 = Muscarinic M1 (Homo sapiens, UniProt P11229); test: Receptor binding, M1
Chain of Muscarinic M1 (P11229 whole entry): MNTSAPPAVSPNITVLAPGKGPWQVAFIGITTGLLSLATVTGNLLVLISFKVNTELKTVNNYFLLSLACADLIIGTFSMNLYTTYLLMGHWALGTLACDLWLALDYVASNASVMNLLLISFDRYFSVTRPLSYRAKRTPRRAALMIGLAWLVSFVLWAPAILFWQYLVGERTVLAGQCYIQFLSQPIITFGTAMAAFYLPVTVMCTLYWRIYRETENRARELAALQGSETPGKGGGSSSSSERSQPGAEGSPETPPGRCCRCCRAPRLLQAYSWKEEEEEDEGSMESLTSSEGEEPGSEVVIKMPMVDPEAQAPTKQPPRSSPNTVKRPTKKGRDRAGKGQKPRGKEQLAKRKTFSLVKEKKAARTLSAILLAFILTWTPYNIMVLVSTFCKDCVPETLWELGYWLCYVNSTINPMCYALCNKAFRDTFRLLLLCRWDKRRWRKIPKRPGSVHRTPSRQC

Sigma σ2 = Sigma σ2 (Homo sapiens, UniProt Q5BJF2); test: Receptor binding, σ2
Chain of Sigma σ2 (Q5BJF2 whole entry): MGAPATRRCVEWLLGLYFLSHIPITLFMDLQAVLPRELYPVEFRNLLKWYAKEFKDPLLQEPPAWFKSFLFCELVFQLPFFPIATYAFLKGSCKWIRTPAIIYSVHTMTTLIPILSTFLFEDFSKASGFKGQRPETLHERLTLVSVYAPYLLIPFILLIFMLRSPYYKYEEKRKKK

Opioid μ = Opioid μ (Homo sapiens, UniProt P35372); test: Receptor binding, opioid μ
Chain of Opioid μ (P35372 whole entry): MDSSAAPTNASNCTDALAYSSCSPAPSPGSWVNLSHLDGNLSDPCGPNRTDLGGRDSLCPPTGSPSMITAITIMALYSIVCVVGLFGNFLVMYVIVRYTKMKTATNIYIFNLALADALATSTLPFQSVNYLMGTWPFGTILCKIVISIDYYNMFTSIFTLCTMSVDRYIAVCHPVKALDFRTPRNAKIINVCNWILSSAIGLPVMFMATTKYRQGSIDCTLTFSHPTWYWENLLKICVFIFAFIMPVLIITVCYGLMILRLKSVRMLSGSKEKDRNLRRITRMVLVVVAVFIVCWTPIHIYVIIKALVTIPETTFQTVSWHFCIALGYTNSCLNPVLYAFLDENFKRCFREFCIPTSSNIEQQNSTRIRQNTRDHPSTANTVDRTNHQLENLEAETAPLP

Opioid δ = Opioid δ (Homo sapiens, UniProt P41143); test: Receptor binding, opioid δ
Dopamine D5 = Dopamine D5 (Homo sapiens, UniProt P21918); test: Receptor binding, D5
Serotonin 5-HT1E = Serotonin 5-HT1E (Homo sapiens, UniProt P28566); test: Receptor binding, 5-HT1E
Dopamine D3 = Dopamine D3 (Homo sapiens, UniProt P35462); test: Receptor binding, D3
Serotonin 5-HT2A = Serotonin 5-HT2A (Homo sapiens, UniProt P28223); test: Receptor binding, 5-HT2A
Chain of Serotonin 5-HT2A (P28223 whole entry): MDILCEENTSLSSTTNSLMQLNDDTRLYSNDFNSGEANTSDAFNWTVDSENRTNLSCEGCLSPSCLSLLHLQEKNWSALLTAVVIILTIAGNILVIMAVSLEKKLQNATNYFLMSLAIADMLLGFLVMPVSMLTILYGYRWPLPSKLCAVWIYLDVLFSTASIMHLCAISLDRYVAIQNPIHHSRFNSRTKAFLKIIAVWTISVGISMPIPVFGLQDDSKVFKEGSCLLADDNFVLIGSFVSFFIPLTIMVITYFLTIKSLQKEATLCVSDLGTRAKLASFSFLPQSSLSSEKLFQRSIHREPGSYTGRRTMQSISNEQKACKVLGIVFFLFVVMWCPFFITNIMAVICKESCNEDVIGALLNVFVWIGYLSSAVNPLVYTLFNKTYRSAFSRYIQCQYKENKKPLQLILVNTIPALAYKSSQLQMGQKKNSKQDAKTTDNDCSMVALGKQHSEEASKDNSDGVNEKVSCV

α-Adrenergic α1D = α-Adrenergic α1D (Homo sapiens, UniProt P25100); test: Receptor binding, α1D
Histamine H2 = Histamine H2 (Homo sapiens, UniProt P25021); test: Receptor binding, H2
Chain of Histamine H2 (P25021 whole entry): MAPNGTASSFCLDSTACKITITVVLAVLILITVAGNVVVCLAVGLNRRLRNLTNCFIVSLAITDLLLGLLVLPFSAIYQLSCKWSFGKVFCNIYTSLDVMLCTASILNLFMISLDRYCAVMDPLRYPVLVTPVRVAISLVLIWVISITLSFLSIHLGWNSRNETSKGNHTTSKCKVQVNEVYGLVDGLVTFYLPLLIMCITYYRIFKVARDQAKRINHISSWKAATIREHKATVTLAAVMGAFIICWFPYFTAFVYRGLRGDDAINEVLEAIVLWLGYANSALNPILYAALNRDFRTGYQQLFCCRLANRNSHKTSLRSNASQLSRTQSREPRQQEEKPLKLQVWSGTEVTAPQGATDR

Histamine H1 = Histamine H1 (Homo sapiens, UniProt P35367); test: Receptor binding, H1; conditions: H1
Chain of Histamine H1 (P35367 whole entry): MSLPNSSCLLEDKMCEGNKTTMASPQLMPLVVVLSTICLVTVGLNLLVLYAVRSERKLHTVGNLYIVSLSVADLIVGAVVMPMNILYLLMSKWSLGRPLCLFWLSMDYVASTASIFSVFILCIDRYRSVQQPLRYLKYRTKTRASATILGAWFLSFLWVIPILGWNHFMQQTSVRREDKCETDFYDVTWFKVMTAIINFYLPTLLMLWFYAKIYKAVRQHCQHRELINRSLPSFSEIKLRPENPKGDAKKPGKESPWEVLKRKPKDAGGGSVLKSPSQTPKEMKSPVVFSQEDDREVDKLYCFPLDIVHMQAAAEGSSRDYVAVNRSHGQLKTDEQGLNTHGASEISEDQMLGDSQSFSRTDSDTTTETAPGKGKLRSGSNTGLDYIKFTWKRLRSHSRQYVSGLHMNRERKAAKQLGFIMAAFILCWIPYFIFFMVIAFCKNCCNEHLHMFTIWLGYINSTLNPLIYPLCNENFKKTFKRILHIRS

Dopamine D2 = Dopamine D2 (Homo sapiens, UniProt P14416); test: Receptor binding, D2
Serotonin transporter = Serotonin transporter (Homo sapiens, UniProt P31645); test: Receptor binding, serotonin transporter
Sigma σ1 = Sigma σ1 (Homo sapiens, UniProt Q99720); test: Receptor binding, σ1
Serotonin 5-HT6 = Serotonin 5-HT6 (Homo sapiens, UniProt P50406); test: Receptor binding, 5-HT6
Chain of Serotonin 5-HT6 (P50406 whole entry): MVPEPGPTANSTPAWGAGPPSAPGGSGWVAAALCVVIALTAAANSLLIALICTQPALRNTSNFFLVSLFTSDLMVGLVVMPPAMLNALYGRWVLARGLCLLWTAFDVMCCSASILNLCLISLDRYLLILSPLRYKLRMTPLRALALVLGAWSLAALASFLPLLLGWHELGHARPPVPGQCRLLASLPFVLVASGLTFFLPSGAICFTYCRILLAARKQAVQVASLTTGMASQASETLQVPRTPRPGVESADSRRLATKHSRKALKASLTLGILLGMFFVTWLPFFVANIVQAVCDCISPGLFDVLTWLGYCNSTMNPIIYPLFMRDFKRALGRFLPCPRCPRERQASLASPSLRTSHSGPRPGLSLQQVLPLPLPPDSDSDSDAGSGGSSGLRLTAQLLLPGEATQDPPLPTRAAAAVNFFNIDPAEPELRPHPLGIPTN

Muscarinic M4 = Muscarinic M4 (Homo sapiens, UniProt P08173); test: Receptor binding, M4
rats = test: Forced swim test (depression model); type: in vivo; conditions: 10 mg/kg i.p., 1 hour before test, versus imipramine 10 mg/kg, FIG. 5
Serotonin 5-HT1A = molecular target: T1, Serotonin 5-HT1A (Homo sapiens, UniProt P08908); test: Receptor binding, 5-HT1A
T1 sequence (P08908 1-422): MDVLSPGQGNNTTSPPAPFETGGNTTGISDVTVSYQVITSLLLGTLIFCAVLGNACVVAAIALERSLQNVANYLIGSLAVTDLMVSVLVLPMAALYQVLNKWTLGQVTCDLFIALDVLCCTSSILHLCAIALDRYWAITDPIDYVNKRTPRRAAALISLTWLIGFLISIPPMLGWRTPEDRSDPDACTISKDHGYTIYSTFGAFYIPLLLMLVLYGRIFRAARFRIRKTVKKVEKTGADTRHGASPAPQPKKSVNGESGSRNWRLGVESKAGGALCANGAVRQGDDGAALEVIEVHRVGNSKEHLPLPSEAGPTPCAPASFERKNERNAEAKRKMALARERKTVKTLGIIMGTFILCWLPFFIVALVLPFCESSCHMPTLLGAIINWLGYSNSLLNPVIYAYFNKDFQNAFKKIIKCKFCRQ

dopamine receptors = test: Receptor binding, dopamine receptors; conditions: any of the dopamine receptors, summary of Table 1
Serotonin 5-HT2B = Serotonin 5-HT2B (Homo sapiens, UniProt P41595); test: Receptor binding, 5-HT2B
Chain of Serotonin 5-HT2B (P41595 whole entry): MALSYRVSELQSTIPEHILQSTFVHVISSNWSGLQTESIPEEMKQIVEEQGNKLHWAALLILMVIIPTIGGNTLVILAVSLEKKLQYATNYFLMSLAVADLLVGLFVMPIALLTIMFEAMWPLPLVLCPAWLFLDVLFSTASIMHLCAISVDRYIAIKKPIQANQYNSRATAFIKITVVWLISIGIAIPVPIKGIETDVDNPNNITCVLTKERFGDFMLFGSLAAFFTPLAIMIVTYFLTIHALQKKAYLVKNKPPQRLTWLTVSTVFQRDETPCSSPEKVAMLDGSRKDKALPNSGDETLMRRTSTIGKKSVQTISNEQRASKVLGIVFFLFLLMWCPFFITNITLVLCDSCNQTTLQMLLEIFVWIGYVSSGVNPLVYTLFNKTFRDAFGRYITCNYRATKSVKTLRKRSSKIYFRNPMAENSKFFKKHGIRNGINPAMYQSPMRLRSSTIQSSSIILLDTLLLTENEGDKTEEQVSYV

Serotonin 5-HT2C = molecular target: T2, Serotonin 5-HT2C (Homo sapiens, UniProt P28335); test: Receptor binding, 5-HT2C
T2 sequence (P28335 33-458): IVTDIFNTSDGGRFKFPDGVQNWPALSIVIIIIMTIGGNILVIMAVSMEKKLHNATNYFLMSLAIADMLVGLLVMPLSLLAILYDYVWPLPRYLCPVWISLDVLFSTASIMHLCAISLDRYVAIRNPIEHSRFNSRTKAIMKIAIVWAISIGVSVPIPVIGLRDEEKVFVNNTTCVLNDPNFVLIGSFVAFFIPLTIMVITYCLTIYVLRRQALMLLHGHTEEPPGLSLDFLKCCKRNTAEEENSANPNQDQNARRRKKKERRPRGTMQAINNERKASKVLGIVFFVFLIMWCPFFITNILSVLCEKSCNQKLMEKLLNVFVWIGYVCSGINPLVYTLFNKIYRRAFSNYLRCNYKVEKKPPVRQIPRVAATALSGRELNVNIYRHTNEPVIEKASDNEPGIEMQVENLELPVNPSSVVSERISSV

β-Adrenergic β2 = β-Adrenergic β2 (Homo sapiens, UniProt P07550); test: Receptor binding, β2
Dopamine transporter = Dopamine transporter (Homo sapiens, UniProt Q01959); test: Receptor binding, dopamine transporter; conditions: Transporters: Dopamine
Muscarinic M2 = Muscarinic M2 (Homo sapiens, UniProt P08172); test: Receptor binding, M2
Chain of Muscarinic M2 (P08172 whole entry): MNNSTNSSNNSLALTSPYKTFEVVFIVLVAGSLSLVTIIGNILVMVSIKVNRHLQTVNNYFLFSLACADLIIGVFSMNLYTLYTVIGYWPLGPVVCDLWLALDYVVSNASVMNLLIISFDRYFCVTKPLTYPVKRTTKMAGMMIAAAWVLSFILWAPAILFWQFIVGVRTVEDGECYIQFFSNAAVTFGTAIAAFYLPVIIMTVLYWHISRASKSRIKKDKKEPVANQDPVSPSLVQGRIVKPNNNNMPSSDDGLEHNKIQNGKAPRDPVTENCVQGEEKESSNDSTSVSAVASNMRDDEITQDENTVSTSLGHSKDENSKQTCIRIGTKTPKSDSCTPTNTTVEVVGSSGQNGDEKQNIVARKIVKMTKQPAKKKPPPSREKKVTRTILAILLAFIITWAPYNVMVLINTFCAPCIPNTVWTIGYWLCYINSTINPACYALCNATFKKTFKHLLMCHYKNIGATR

Dopamine D4 = Dopamine D4 (Homo sapiens, UniProt P21917); test: Receptor binding, D4

Chain of Serotonin 5-HT1D (P28221 whole entry): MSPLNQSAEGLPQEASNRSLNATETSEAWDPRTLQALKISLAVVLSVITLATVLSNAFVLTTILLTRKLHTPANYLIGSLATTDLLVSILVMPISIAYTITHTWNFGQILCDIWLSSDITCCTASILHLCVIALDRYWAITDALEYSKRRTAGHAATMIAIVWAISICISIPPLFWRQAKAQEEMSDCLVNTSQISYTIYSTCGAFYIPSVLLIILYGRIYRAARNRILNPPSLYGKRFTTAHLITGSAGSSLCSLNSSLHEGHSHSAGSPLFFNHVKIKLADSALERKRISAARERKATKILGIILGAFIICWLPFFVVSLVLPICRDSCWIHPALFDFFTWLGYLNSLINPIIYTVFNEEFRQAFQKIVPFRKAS

CN1CCc2c(c3cccc4c3n2Cc2ccccc2O4)C1 [Compound 13b]
Ki (Serotonin 5-HT1D): 385 nM | binding, in words (Serotonin 5-HT1D; summary of Table 1): moderate binding | Ki (Muscarinic M5): > 10 µM | Ki (β-Adrenergic β3): > 10 µM | Ki (Dopamine D1): > 10 µM | Ki (Histamine H3): > 10 µM | Ki (Serotonin 5-HT1B): 738 nM | Ki [1]: 1950 nM | Ki (Muscarinic M1): > 10 µM | Ki (Sigma σ2; σ2): 1810 nM | binding, in words (Sigma σ2; σ2, text summary of Table 1): moderate binding | Ki (Opioid μ): > 10 µM | Ki (Opioid δ): 310 nM | Ki (Dopamine D5): > 10 µM | Ki (Serotonin 5-HT1E): > 10 µM | Ki (Dopamine D3): > 10 µM | Ki (Serotonin 5-HT2A): 927 nM | Ki (α-Adrenergic α1D): 5.03 µM | Ki (Histamine H2): 4.73 µM | Ki (Histamine H1): 733 nM | Ki (Dopamine D2): > 10 µM | Ki (Serotonin transporter): 413 nM | Ki (Sigma σ1): 220 nM | Ki (Serotonin 5-HT6; 5-HT6): 189 nM | binding, in words (Serotonin 5-HT6; 5-HT6, text summary of Table 1): moderate binding | Ki (Muscarinic M4): > 10 µM | antidepressive activity (immobility, forced swim test) (rats): comparable to imipramine | Ki (Serotonin 5-HT1A): 32 nM | binding, in words (Serotonin 5-HT1A; summary of Table 1): binds strongly | binding, in words (dopamine receptors): neither of the two compounds 13a and 13b binds significantly | Ki (Serotonin 5-HT2B): 195 nM | Ki (Serotonin 5-HT2C; 5-HT2C): 247 nM | binding, in words (Serotonin 5-HT2C; HT2c, summary of Table 1): moderate binding | Ki (β-Adrenergic β2): > 10 µM | Ki (Dopamine transporter): > 10 µM | Ki (Muscarinic M2): > 10 µM | Ki (Dopamine D4): > 10 µM
